Source: US20120029167A1, “AUTO MAGNETIC METAL SALEN COMPLEX COMPOUND” (Yoshihiro Ishikawa, priority 2008, published 2012)

Columns and labels:
[1] = 37° C. (310K) magnetic field-magnetization curve using MPMS7 (Quantum Design); assay type: physicochemical; settings: for magnetic field at which magnetization is greater in comparison to the Fe-salen / magnetic properties from magnetic field-magnetization curve: 37° C. (310K); for magnetization compared among Fe-, Mn-, Cr-, Co-salen: magnetic field 10000 Oe (1 T) or more
Method: As a result of measuring the 37° C.
The summary of the results of the 37° C. (310K) magnetic field-magnetization curve of the Fe-salen complex, the Mn-salen complex, the Cr-salen complex, and the Co-salen complex is shown in FIG. 4.
In comparison to the Fe-salen, the Co-salen yields greater magnetization at a magnetic field of 10000 Oe (1 T (tesla)) or more. In comparison to the Fe-salen, the Mn-salen yields greater magnetization at a magnetic field of 30000 Oe (3 T (tesla)) or more.
Nevertheless, if the magnetic field is 10000 Oe (1 T (tesla)) or more, the magnetization of the Co-salen and Mn-salen complex is the greatest and is optimal for a magnetic field drug delivery system which uses a superconducting magnet.

rat L6 cells = assay: Rat L6 cell culture in square flask with magnet, number of cells after 48 hours; assay type: cell-based; settings: powder sprinkled on culture medium, L6 cells confluent at 30%, bar magnet
Method: The respective metal salen complex powders of the Fe-salen complex, the Mn-salen complex, the Cr-salen complex, and the Co-salen complex obtained with the foregoing method were sprinkled on a culture medium in an amount that where such powder can be visually confirmed to be drawn to the magnet in a state where the rat L6 cells are confluent at 30%, and a photograph of the state of the culture medium after 48 hours was taken.
Subsequently, a photograph was taken from one end to the other end of the bottom face of the square flask after 48 hours, and the results of calculating the number of cells are shown in FIG. 6. […]
Shown is a state where the bar magnet was caused to come in contact with a square flask as the culture medium of the rat L6 cells. Subsequently, a photograph was taken from one end to the other end of the bottom face of the square flask after 48 hours, and the number of cells was calculated. […]
Shown is a state where the bar magnet was caused to come in contact with a square flask as the culture medium of the rat L6 cells. Subsequently, a photograph was taken from one end to the other end of the bottom face of the square flask after 48 hours, and the number of cells was calculated.

Row | magnetic field at which magnetization is greater in comparison to the Fe-salen [1] [Oe] | magnetic properties from magnetic field-magnetization curve [1] | magnetization compared among Fe-, Mn-, Cr-, Co-salen [1] | SMILES | number of cells proximal from the magnet versus distal (rat L6 cells)
1 | ≥ 30000 | paramagnetic properties were observed | the greatest | Oc1ccccc1C=NCCN=Cc1ccccc1O.[Mn] [Mn-salen complex] | number of cells is extremely lower than the distal
2 | – | paramagnetic properties were observed | – | [Cr+2].[O-]c1ccccc1C=NCCN=Cc1ccccc1[O-] [Cr-salen complex] | –
3 | ≥ 10000 | paramagnetic properties were observed | the greatest | [Co+2].[O-]c1ccccc1C=NCCN=Cc1ccccc1[O-] [Co-salen complex] | –
